Values quoted from earlier work as cited in paper PMC9851200, “Multiparameter phenotypic screening for endogenous TFEB and TFE3 translocation identifies novel chemical series modulating lysosome function” (Autophagy, 2022).

Key:
Parameters in all cases: method as in original PKIS2 published data
[1] = target: T1, kinases (KINOMEscan panel) (Homo sapiens, UniProt Q08881); details: kinase ITK; Published KINOMEscan; ref original PKIS2 published data; cited from earlier work
T1 sequence (Q08881 1-620): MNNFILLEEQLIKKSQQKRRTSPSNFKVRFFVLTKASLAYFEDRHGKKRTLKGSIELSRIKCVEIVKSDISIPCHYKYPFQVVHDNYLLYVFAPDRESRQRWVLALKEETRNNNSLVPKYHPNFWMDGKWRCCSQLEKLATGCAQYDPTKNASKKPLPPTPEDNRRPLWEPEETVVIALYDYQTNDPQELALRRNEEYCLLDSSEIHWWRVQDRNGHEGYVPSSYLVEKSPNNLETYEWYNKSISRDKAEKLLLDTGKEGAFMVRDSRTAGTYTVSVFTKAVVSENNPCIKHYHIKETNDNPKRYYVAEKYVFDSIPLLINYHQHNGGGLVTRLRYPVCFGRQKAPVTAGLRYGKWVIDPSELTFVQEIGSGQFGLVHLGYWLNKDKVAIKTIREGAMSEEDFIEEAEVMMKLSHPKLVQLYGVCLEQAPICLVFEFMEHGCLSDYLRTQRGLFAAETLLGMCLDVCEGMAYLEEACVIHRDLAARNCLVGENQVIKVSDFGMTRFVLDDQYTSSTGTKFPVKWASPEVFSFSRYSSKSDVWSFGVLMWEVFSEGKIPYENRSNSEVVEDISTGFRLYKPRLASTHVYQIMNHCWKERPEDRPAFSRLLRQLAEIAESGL

[2] = target: T2, kinases (KINOMEscan panel) (Homo sapiens, UniProt Q99759); details: MAP3K3; Published KINOMEscan; ref original PKIS2 published data; cited from earlier work
T2 sequence (Q99759 1-626): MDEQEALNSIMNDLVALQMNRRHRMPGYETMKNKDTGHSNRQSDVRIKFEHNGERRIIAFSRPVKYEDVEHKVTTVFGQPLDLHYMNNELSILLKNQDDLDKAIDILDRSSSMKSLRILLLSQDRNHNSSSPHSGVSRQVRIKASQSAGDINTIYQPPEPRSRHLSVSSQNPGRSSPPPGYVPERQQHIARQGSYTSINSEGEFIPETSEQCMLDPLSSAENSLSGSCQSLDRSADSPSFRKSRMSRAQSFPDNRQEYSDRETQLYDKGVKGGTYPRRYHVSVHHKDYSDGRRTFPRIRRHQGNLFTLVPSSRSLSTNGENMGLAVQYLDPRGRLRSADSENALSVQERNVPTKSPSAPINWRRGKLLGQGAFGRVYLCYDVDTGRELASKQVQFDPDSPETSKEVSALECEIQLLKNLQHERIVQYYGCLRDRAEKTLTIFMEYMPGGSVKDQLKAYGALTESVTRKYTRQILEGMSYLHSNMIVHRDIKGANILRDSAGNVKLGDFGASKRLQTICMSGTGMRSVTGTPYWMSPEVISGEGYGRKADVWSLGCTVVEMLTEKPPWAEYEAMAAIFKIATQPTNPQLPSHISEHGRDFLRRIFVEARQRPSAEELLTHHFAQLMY

[3] = target: T3, kinases (KINOMEscan panel) (Homo sapiens, UniProt Q9BXA7); details: kinase TSSK1B; Published KINOMEscan; ref original PKIS2 published data; cited from earlier work
T3 sequence (Q9BXA7 1-367): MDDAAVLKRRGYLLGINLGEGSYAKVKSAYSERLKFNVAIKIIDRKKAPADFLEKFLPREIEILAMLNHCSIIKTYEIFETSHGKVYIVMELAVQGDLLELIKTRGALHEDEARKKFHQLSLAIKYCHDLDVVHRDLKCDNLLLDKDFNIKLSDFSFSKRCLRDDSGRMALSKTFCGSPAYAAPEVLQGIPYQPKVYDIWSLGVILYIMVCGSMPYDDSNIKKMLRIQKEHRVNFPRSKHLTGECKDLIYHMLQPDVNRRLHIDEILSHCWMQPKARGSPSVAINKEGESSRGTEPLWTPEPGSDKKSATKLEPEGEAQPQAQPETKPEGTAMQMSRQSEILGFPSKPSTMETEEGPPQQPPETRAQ

[4] = target: kinases (KINOMEscan panel) (Homo sapiens, UniProt P04626); details: kinase ERBB2; Published KINOMEscan; ref original PKIS2 published data; cited from earlier work
[5] = target: kinases (KINOMEscan panel) (Homo sapiens, UniProt Q9UBF8); details: kinase PI4KB; Published KINOMEscan; ref original PKIS2 published data; cited from earlier work
[6] = target: T4, kinases (KINOMEscan panel) (Homo sapiens, UniProt Q9UQB9); details: AURKC; Published KINOMEscan; ref original PKIS2 published data; cited from earlier work
T4 sequence (Q9UQB9 1-309): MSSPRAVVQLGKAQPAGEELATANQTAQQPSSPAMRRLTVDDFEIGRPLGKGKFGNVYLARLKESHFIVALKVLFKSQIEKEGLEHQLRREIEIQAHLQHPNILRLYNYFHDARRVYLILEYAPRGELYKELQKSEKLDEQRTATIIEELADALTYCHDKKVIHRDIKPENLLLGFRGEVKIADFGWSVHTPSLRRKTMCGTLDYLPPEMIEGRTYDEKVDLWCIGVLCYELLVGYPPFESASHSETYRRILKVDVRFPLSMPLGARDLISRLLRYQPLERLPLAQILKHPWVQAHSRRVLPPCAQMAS

[7] = target: kinases (KINOMEscan panel) (Homo sapiens, UniProt P11802); details: Published KINOMEscan, ref original PKIS2 published data, cited from earlier work
Sequence of kinases (KINOMEscan panel) (Homo sapiens, UniProt P11802) (P11802 whole entry): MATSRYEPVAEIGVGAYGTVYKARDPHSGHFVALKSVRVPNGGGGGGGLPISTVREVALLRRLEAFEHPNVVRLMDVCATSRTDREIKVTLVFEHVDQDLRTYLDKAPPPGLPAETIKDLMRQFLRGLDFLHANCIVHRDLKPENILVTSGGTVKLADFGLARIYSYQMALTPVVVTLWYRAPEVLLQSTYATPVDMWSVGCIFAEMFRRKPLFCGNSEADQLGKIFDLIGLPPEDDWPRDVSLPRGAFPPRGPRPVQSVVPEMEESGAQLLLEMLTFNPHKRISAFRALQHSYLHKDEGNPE

Sequence of kinases (KINOMEscan panel) (Homo sapiens, UniProt Q9UBF8) (Q9UBF8 whole entry): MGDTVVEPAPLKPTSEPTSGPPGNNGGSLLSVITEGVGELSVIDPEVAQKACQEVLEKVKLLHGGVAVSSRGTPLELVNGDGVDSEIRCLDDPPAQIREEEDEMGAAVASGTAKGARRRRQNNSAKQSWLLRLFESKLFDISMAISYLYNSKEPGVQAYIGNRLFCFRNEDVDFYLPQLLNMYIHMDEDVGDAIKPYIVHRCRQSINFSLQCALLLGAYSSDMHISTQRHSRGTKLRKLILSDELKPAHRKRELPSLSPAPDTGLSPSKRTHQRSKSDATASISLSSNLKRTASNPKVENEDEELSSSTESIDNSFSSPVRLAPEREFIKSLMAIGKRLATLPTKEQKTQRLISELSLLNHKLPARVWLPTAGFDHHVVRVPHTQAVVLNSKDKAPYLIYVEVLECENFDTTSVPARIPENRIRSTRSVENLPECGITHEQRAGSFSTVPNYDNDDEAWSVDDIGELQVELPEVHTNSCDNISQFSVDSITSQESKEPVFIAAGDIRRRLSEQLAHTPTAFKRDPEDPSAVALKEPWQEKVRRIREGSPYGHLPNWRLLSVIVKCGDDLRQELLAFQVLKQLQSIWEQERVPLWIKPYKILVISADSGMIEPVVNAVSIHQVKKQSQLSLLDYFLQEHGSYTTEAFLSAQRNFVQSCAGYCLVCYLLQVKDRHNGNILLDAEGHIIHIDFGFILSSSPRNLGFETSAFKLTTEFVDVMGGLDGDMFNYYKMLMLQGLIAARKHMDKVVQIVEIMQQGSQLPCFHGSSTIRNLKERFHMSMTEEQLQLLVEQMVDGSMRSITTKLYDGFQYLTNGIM
Sequence of kinases (KINOMEscan panel) (Homo sapiens, UniProt P04626) (P04626 23-1255): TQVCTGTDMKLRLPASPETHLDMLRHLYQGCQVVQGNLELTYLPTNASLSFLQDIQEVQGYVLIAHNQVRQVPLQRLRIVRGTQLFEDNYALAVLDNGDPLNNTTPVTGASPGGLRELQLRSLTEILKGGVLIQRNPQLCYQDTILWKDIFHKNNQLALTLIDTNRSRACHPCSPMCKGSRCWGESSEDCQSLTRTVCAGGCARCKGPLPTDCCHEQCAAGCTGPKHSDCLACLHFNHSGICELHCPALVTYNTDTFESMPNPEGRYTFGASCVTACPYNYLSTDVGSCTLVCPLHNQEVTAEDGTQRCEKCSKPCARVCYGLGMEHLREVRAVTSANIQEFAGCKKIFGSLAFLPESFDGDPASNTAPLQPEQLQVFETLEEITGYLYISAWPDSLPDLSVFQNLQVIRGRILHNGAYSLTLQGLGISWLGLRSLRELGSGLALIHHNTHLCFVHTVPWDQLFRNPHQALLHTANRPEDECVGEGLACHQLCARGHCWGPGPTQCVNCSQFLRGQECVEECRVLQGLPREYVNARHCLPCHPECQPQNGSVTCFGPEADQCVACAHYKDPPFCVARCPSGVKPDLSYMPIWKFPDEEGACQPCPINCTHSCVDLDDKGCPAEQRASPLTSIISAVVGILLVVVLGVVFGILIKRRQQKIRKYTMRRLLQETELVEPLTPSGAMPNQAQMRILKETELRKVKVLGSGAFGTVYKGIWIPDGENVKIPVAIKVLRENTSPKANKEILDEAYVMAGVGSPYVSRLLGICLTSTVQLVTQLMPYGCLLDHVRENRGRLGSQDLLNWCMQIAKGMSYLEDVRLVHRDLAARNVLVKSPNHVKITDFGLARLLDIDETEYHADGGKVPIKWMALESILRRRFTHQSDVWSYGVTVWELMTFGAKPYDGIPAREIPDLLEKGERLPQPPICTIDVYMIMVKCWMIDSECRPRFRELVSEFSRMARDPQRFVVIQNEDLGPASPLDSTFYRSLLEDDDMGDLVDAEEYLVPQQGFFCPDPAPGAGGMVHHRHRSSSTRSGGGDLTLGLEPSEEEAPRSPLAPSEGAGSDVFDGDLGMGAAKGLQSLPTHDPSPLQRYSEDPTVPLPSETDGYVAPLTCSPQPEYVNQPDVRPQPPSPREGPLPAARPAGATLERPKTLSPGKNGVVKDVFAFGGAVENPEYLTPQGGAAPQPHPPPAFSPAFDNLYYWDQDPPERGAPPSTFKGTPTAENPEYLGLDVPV

## Cc1cccc(-c2nc(Nc3ccncc3)c3ccccc3n2)n1 [NK215]
[1]
  KINOMEscan ITK: 24
[2]
  KINOMEscan MAP3K3: 0
[3]
  KINOMEscan TSSK1B: 0
[4]
  KINOMEscan ERBB2: 7
[5]
  KINOMEscan PI4KB: 0
[6]
  KINOMEscan AURKC: 0
[7]; CDK4-cyclinD1 (???) CCND1
  KINOMEscan CDK4-cyclinD1 (???) CCND1: 13
[7]; kinase CDK4-cyclinD3
  KINOMEscan CDK4-cyclinD3: 0
[7]; kinase CDK4
  KINOMEscan CDK4: 0
